Test results from ChEMBL document CHEMBL5579809, “Exploration of bromodomain ligand-linker conjugation sites for efficient CBP/p300 heterobifunctional degrader activity” (Bioorg Med Chem Lett, 2024).
The source made the active and inactive calls. The calls are words filed in the database; no cut-off is given here.

Legend:
[1] = molecular target: T1, Protein cereblon/Histone acetyltransferase p300 (Homo sapiens) (UniProt Q09472+Q96SW2); assay: PROTAC activity at CRBN/HiBiT-tagged p300 in human HAP1 cells assessed as induction of p300 degradation by measuring degradation rate at 1000 nM measured over 24 hrs by luminescence based analysis; assay type: cell-based
[2] = molecular target: Protein cereblon/Bromodomain-containing protein 4 (Homo sapiens) (UniProt O60885+Q96SW2); assay: PROTAC activity at CRBN/HiBiT-tagged BRD4 in human HAP1 cells assessed as induction of BRD4 degradation measured over 24 hrs by luminescence based analysis; assay type: cell-based
[3] = molecular target: T1, Protein cereblon/Histone acetyltransferase p300 (Homo sapiens); assay: PROTAC activity at CRBN/HiBiT-tagged p300 in human HAP1 cells assessed as total cumulative degradation by measuring AUC at 1000 nM measured over 24 hrs by luminescence based analysis; assay type: cell-based
[4] = molecular target: T1, Protein cereblon/Histone acetyltransferase p300 (Homo sapiens); assay: PROTAC activity at CRBN/HiBiT-tagged p300 in human HAP1 cells assessed as total cumulative degradation by measuring AUC at 100 nM measured over 24 hrs by luminescence based analysis; assay type: cell-based
[5] = molecular target: T2, Protein cereblon/CREB-binding protein (Homo sapiens) (UniProt Q92793+Q96SW2); assay: PROTAC activity at CRBN/HiBiT-tagged CBP in human HAP1 cells assessed as total cumulative degradation by measuring AUC at 1000 nM measured over 24 hrs by luminescence based analysis; assay type: cell-based
[6] = molecular target: T2, Protein cereblon/CREB-binding protein (Homo sapiens); assay: PROTAC activity at CRBN/HiBiT-tagged CBP in human HAP1 cells assessed as total cumulative degradation by measuring AUC at 1 nM measured over 24 hrs by luminescence based analysis; assay type: cell-based
[7] = molecular target: T2, Protein cereblon/CREB-binding protein (Homo sapiens); assay: PROTAC activity at CRBN/HiBiT-tagged CBP in human HAP1 cells assessed as total cumulative degradation by measuring AUC at 100 nM measured over 24 hrs by luminescence based analysis; assay type: cell-based
[8] = molecular target: T1, Protein cereblon/Histone acetyltransferase p300 (Homo sapiens); assay: PROTAC activity at CRBN/HiBiT-tagged p300 in human HAP1 cells assessed as total cumulative degradation by measuring AUC at 0.1 nM measured over 24 hrs by luminescence based analysis; assay type: cell-based
[9] = molecular target: T1, Protein cereblon/Histone acetyltransferase p300 (Homo sapiens); assay: PROTAC activity at CRBN/HiBiT-tagged p300 in human HAP1 cells assessed as induction of p300 degradation by measuring maximal efficacy at 1000 nM measured over 24 hrs by luminescence based analysis relative to control; assay type: cell-based
[10] = molecular target: T1, Protein cereblon/Histone acetyltransferase p300 (Homo sapiens); assay: Binding affinity to recombinant CRBN/p300 bromodomain (unknown origin) assessed as ternary complex formation at 10 to 100 nM by Alphascreen-based proximity assay; assay type: protein assay; settings: dose 10-100 nM
[11] = molecular target: T1, Protein cereblon/Histone acetyltransferase p300 (Homo sapiens); assay: PROTAC activity at CRBN/HiBiT-tagged p300 in human HAP1 cells assessed as total cumulative degradation by measuring AUC at 1 nM measured over 24 hrs by luminescence based analysis; assay type: cell-based
[12] = molecular target: T1, Protein cereblon/Histone acetyltransferase p300 (Homo sapiens); assay: PROTAC activity at CRBN/HiBiT-tagged p300 in human HAP1 cells assessed as total cumulative degradation by measuring AUC at 10 nM measured over 24 hrs by luminescence based analysis; assay type: cell-based
[13] = molecular target: T2, Protein cereblon/CREB-binding protein (Homo sapiens); assay: PROTAC activity at CRBN/HiBiT-tagged CBP in human HAP1 cells assessed as total cumulative degradation by measuring AUC at 10 nM measured over 24 hrs by luminescence based analysis; assay type: cell-based
[14] = molecular target: T2, Protein cereblon/CREB-binding protein (Homo sapiens); assay: PROTAC activity at CRBN/HiBiT-tagged CBP in human HAP1 cells assessed as total cumulative degradation by measuring AUC at 0.1 nM measured over 24 hrs by luminescence based analysis; assay type: cell-based
[15] = molecular target: T2, Protein cereblon/CREB-binding protein (Homo sapiens); assay: Binding affinity to recombinant CRBN/CBP bromodomain (unknown origin) assessed as ternary complex formation at 10 to 100 nM by Alphascreen-based proximity assay; assay type: protein assay; settings: dose 10-100 nM
[16] = molecular target: T1, Protein cereblon/Histone acetyltransferase p300 (Homo sapiens); assay: PROTAC activity at CRBN/HiBiT-tagged p300 in human HAP1 cells assessed as total cumulative degradation by measuring AUC at 0.01 nM measured over 24 hrs by luminescence based analysis; assay type: cell-based
[17] = molecular target: T2, Protein cereblon/CREB-binding protein (Homo sapiens); assay: PROTAC activity at CRBN/HiBiT-tagged CBP in human HAP1 cells assessed as total cumulative degradation by measuring AUC at 0.01 nM measured over 24 hrs by luminescence based analysis; assay type: cell-based
[18] = molecular target: T2, Protein cereblon/CREB-binding protein (Homo sapiens); assay: PROTAC activity at CRBN/HiBiT-tagged CBP in human HAP1 cells assessed as induction of CBP degradation by measuring maximal efficacy at 100 nM measured over 24 hrs by luminescence based analysis relative to control; assay type: cell-based
[19] = molecular target: T2, Protein cereblon/CREB-binding protein (Homo sapiens); assay: PROTAC activity at CRBN/HiBiT-tagged CBP in human HAP1 cells assessed as induction of CBP degradation by measuring degradation rate at 100 nM measured over 24 hrs by luminescence based analysis; assay type: cell-based
[20] = molecular target: T2, Protein cereblon/CREB-binding protein (Homo sapiens); assay: PROTAC activity at CRBN/HiBiT-tagged CBP in human HAP1 cells assessed as induction of CBP degradation by measuring maximal efficacy at 10 nM measured over 24 hrs by luminescence based analysis relative to control; assay type: cell-based
[21] = molecular target: T1, Protein cereblon/Histone acetyltransferase p300 (Homo sapiens); assay: PROTAC activity at CRBN/HiBiT-tagged p300 in human HAP1 cells assessed as induction of p300 degradation by measuring degradation rate at 10 nM measured over 24 hrs by luminescence based analysis; assay type: cell-based
[22] = molecular target: T1, Protein cereblon/Histone acetyltransferase p300 (Homo sapiens); assay: PROTAC activity at CRBN/HiBiT-tagged p300 in human HAP1 cells assessed as induction of p300 degradation by measuring maximal efficacy at 10 nM measured over 24 hrs by luminescence based analysis relative to control; assay type: cell-based
[23] = molecular target: T2, Protein cereblon/CREB-binding protein (Homo sapiens); assay: PROTAC activity at CRBN/HiBiT-tagged CBP in human HAP1 cells assessed as induction of CBP degradation by measuring maximal efficacy at 1000 nM measured over 24 hrs by luminescence based analysis relative to control; assay type: cell-based
[24] = molecular target: T2, Protein cereblon/CREB-binding protein (Homo sapiens); assay: PROTAC activity at CRBN/HiBiT-tagged CBP in human HAP1 cells assessed as induction of CBP degradation by measuring degradation rate at 1000 nM measured over 24 hrs by luminescence based analysis; assay type: cell-based
[25] = molecular target: T2, Protein cereblon/CREB-binding protein (Homo sapiens); assay: PROTAC activity at CRBN/HiBiT-tagged CBP in human HAP1 cells assessed as induction of CBP degradation by measuring degradation rate at 10 nM measured over 24 hrs by luminescence based analysis; assay type: cell-based
[26] = molecular target: T1, Protein cereblon/Histone acetyltransferase p300 (Homo sapiens); assay: PROTAC activity at CRBN/HiBiT-tagged p300 in human HAP1 cells assessed as induction of p300 degradation by measuring degradation rate at 100 nM measured over 24 hrs by luminescence based analysis; assay type: cell-based
[27] = molecular target: T1, Protein cereblon/Histone acetyltransferase p300 (Homo sapiens); assay: PROTAC activity at CRBN/HiBiT-tagged p300 in human HAP1 cells assessed as induction of p300 degradation by measuring maximal efficacy at 100 nM measured over 24 hrs by luminescence based analysis relative to control; assay type: cell-based
[28] = molecular target: T2, Protein cereblon/CREB-binding protein (Homo sapiens); assay: PROTAC activity at CRBN/HiBiT-tagged CBP in human HAP1 cells assessed as induction of CBP degradation by measuring maximal efficacy at 1 nM measured over 24 hrs by luminescence based analysis relative to control; assay type: cell-based
[29] = molecular target: T1, Protein cereblon/Histone acetyltransferase p300 (Homo sapiens); assay: PROTAC activity at CRBN/HiBiT-tagged p300 in human HAP1 cells assessed as induction of p300 degradation by measuring degradation rate at 1 nM measured over 24 hrs by luminescence based analysis; assay type: cell-based
[30] = molecular target: T2, Protein cereblon/CREB-binding protein (Homo sapiens); assay: PROTAC activity at CRBN/HiBiT-tagged CBP in human HAP1 cells assessed as induction of CBP degradation by measuring maximal efficacy at 0.1 nM measured over 24 hrs by luminescence based analysis relative to control; assay type: cell-based
[31] = molecular target: T2, Protein cereblon/CREB-binding protein (Homo sapiens); assay: PROTAC activity at CRBN/HiBiT-tagged CBP in human HAP1 cells assessed as induction of CBP degradation by measuring degradation rate at 1 nM measured over 24 hrs by luminescence based analysis; assay type: cell-based
[32] = molecular target: T1, Protein cereblon/Histone acetyltransferase p300 (Homo sapiens); assay: PROTAC activity at CRBN/HiBiT-tagged p300 in human HAP1 cells assessed as induction of p300 degradation by measuring maximal efficacy at 1 nM measured over 24 hrs by luminescence based analysis relative to control; assay type: cell-based

Protein cereblon/Bromodomain-containing protein 4 (Homo sapiens), sequence (Q96SW2 whole entry, looked up, other chains not shown): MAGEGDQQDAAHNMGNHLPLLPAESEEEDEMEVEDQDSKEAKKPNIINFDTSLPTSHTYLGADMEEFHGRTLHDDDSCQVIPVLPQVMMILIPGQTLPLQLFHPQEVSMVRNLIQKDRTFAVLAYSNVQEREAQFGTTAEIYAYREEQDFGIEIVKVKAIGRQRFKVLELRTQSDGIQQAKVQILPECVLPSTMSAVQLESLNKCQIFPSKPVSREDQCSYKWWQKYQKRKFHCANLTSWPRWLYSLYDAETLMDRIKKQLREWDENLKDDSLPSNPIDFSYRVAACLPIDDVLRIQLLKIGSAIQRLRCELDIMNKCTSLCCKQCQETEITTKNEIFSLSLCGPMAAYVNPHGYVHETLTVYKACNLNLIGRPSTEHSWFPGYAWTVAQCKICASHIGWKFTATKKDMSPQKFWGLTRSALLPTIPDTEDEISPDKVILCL
T1 sequence (Q09472 2-2414 limits assumed): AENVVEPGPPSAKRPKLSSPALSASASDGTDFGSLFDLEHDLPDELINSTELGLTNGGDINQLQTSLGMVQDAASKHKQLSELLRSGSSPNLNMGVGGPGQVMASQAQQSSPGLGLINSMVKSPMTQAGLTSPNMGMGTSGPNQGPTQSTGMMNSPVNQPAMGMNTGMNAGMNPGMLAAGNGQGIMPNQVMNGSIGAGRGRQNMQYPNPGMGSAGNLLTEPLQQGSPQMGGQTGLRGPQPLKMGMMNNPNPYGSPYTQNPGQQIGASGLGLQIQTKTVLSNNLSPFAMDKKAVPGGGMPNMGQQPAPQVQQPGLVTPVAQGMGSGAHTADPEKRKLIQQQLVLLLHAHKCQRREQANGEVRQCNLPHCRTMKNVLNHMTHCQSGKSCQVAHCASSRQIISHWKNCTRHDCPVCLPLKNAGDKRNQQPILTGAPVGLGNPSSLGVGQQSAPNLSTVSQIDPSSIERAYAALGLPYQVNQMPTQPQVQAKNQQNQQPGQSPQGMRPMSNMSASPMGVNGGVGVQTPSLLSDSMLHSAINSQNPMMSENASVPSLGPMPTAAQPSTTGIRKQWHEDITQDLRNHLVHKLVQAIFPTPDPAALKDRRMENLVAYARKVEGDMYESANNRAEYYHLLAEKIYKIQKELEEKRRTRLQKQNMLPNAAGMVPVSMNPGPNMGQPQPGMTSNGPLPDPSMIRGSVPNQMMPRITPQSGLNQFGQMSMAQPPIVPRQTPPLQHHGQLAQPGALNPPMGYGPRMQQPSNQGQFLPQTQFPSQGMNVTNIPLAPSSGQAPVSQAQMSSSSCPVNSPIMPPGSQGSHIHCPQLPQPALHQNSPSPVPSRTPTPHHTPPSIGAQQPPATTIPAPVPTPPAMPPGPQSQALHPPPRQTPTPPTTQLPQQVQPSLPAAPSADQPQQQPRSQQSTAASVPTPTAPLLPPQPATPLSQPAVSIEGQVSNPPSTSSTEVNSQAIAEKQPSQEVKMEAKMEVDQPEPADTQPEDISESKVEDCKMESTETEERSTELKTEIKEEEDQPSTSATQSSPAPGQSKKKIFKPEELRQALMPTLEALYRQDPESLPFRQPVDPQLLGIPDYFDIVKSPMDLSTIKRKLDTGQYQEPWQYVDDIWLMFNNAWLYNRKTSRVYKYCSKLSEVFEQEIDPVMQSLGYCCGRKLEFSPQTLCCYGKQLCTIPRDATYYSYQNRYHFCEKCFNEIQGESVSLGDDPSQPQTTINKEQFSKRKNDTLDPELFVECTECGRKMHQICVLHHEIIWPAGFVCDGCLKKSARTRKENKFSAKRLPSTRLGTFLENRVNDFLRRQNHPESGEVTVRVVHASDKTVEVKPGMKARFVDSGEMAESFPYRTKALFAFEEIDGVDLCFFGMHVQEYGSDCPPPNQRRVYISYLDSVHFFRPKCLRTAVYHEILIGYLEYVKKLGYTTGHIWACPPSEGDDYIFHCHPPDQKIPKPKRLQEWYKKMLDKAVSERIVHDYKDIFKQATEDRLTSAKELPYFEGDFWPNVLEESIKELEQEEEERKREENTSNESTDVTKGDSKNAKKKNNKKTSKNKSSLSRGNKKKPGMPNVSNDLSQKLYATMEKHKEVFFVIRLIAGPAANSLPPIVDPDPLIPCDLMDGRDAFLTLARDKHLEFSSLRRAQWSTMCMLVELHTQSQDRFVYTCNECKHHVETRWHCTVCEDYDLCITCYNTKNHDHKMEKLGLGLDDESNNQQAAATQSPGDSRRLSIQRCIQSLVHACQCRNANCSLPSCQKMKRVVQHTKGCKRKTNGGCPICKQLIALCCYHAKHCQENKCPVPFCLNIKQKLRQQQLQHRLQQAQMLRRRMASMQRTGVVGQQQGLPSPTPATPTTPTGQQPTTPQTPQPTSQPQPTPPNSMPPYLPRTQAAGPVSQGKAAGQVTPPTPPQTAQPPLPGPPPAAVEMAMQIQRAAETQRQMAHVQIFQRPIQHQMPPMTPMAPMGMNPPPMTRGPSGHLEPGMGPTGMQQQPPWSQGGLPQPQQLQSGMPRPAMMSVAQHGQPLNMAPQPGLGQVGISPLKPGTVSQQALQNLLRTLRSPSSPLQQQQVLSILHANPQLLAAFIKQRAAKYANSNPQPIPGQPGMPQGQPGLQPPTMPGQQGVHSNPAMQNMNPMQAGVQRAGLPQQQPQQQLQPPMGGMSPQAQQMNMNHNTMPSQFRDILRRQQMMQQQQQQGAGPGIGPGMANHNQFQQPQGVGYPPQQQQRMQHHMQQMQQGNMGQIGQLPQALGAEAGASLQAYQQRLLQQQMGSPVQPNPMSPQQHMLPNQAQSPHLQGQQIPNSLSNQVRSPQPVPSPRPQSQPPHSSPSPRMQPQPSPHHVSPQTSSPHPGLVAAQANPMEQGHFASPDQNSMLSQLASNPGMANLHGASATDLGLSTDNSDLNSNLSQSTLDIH
T1 sequence (Q96SW2 whole entry partner): as the sequence (Q96SW2 whole entry, looked up, other chains not shown) above

Activity [1] [h⁻¹]	Activity [2]	AUC [3]	AUC [4]	AUC [5]	AUC [6]	AUC [7]	AUC [8]	Emax [9] [%]	Activity [10]	AUC [11]	AUC [12]	AUC [13]	AUC [14]	Activity [15]	AUC [16]	AUC [17]	Emax [18] [%]	Activity [19] [h⁻¹]	Emax [20] [%]	SMILES	further results
0.009	inactive	22.1	25.5	24.2	24.7	24.6	27.3	26	Active	27.7	26.9	25.1	24.4	Active	27.2	24.1	–	–	–	CNC(=O)N1CCc2c(c(N3CCN(C(=O)NCCOCCOCCOCCOCCNc4ccc5c(c4)C(=O)N(C4CCC(=O)NC4=O)C5=O)c4cc(-c5cnn(C)c5)c(C(F)(F)F)cc43)nn2C2CCOCC2)C1 (configuration not stated)	–
0.11	inactive	15.8	16.8	17.8	23.3	18	26.8	55	Active	25.8	21.3	22.2	23.4	Active	28	22.4	42	0.11	22	CNC(=O)N1CCc2c(c(N3CCCc4cc(-c5cnn(CC(=O)NCCOCCOCCOCCOCCNc6ccc7c(c6)C(=O)N(C6CCC(=O)NC6=O)C7=O)c5)c(C(F)F)cc43)nn2C2CCOCC2)C1 (configuration not stated)	Activity [21]: 0.03 h⁻¹; Emax [22]: 61%; Emax [23]: 42%; Activity [24]: 0.12 h⁻¹; Activity [25]: 9.7 10^-3/hr; Activity [26]: 0.11 h⁻¹; Emax [27]: 51%
0.46	inactive	6	5.2	6.6	17.8	4.7	26.4	83	Active	18.6	9.3	8.1	24.2	Active	27.3	26.3	86	0.79	72	CNC(=O)N1CCc2c(c(N3CCCc4cc(-c5cnn(C)c5)c(C(F)F)cc43)nn2C2CCN(C(=O)CCOCCOCCOCCOCCOCCOCCNc3ccc4c(c3)C(=O)N(C3CCC(=O)NC3=O)C4=O)CC2)C1 (configuration not stated)	Activity [21]: 0.49 h⁻¹; Emax [28]: 33%; Activity [29]: 0.19 h⁻¹; Emax [30]: 8.6%; Emax [22]: 68%; Activity [31]: 0.27 h⁻¹; Emax [23]: 81%; Activity [24]: 0.42 h⁻¹; Activity [25]: 0.68 h⁻¹; Activity [26]: 0.74 h⁻¹; Emax [27]: 83%; Emax [32]: 32%
0.14	inactive	13.5	10.4	15.1	22.6	12.1	27.3	65	Active	22.6	13.7	16	25.5	Active	25.7	24.2	63	0.22	44	CNC(=O)N1CCc2c(c(N3CCCc4cc(-c5cnn(CC(=O)NCCOCCNc6ccc7c(c6)C(=O)N(C6CCC(=O)NC6=O)C7=O)c5)c(C(F)F)cc43)nn2C2CCOCC2)C1 (configuration not stated)	Activity [21]: 0.22 h⁻¹; Emax [28]: 20%; Activity [29]: 0.004 h⁻¹; Emax [22]: 55%; Activity [31]: 1.5 10^-4/hr; Emax [23]: 59%; Activity [24]: 0.12 h⁻¹; Activity [25]: 0.21 h⁻¹; Activity [26]: 0.26 h⁻¹; Emax [27]: 69%; Emax [32]: 18%
